Laboratory results taken from PubChem BioAssay (NCI).
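All cell lines were grown in 96-well plates and treated with compound for 48 hours. The concentration for 50% growth inhibition is given as GI50. Definition used: TGI = concentration required for complete inhibition of growth.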

Legend:
Assay in all cases: NCI anticancer screen, dose series, 48 h
786-0 renal = tested on: 786-0 renal
A498 renal = tested on: A498 renal
A549 NSCLC = tested on: A549 NSCLC
ACHN renal = tested on: ACHN renal
BT-549 breast = tested on: BT-549 breast
CAKI-1 renal = tested on: CAKI-1 renal
CCRF-CEM leukemia = tested on: CCRF-CEM leukemia
COLO 205 colon = tested on: COLO 205 colon
DU-145 prostate = tested on: DU-145 prostate
EKVX NSCLC = tested on: EKVX NSCLC
HCC-2998 colon = tested on: HCC-2998 colon
HCT-116 colon = tested on: HCT-116 colon
HCT-15 colon = tested on: HCT-15 colon
HL-60(TB) leukemia = tested on: HL-60(TB) leukemia
HOP-62 NSCLC = tested on: HOP-62 NSCLC
HOP-92 NSCLC = tested on: HOP-92 NSCLC
HS 578T breast = tested on: HS 578T breast
HT29 colon = tested on: HT29 colon
IGROV1 ovarian = tested on: IGROV1 ovarian
K-562 leukemia = tested on: K-562 leukemia
KM12 colon = tested on: KM12 colon
LOX IMVI melanoma = tested on: LOX IMVI melanoma
M14 melanoma = tested on: M14 melanoma
MCF7 breast = tested on: MCF7 breast
MDA-MB-231 breast = tested on: MDA-MB-231 breast
MDA-MB-435 = tested on: MDA-MB-435
MOLT-4 leukemia = tested on: MOLT-4 leukemia
NCI-H226 lung = tested on: NCI-H226 lung
NCI-H23 lung = tested on: NCI-H23 lung
NCI-H460 lung = tested on: NCI-H460 lung
NCI-H522 lung = tested on: NCI-H522 lung
NCI/ADR-RES ovarian = tested on: NCI/ADR-RES ovarian
OVCAR-4 ovarian = tested on: OVCAR-4 ovarian
OVCAR-5 ovarian = tested on: OVCAR-5 ovarian
OVCAR-8 ovarian = tested on: OVCAR-8 ovarian
PC-3 prostate = tested on: PC-3 prostate
RPMI-8226 leukemia = tested on: RPMI-8226 leukemia
RXF 393 renal = tested on: RXF 393 renal
SF-268 CNS = tested on: SF-268 CNS
SF-295 CNS = tested on: SF-295 CNS
SF-539 CNS = tested on: SF-539 CNS
SK-MEL-2 melanoma = tested on: SK-MEL-2 melanoma
SK-MEL-28 melanoma = tested on: SK-MEL-28 melanoma
SK-MEL-5 melanoma = tested on: SK-MEL-5 melanoma
SK-OV-3 ovarian = tested on: SK-OV-3 ovarian
SN12C renal = tested on: SN12C renal
SNB-19 CNS = tested on: SNB-19 CNS
SNB-75 CNS = tested on: SNB-75 CNS
SR leukemia = tested on: SR leukemia
SW-620 colon = tested on: SW-620 colon
TK-10 renal = tested on: TK-10 renal
U251 CNS = tested on: U251 CNS
UACC-257 melanoma = tested on: UACC-257 melanoma
UACC-62 melanoma = tested on: UACC-62 melanoma
UO-31 renal = tested on: UO-31 renal
MALME-3M melanoma = tested on: MALME-3M melanoma

CCN1C(=O)N(CC)C2SC(N/N=C/c3ccc(OC)cc3)=NC21 (stereo not drawn)
GI50 (786-0 renal): 0.849 µM
TGI (786-0 renal): 51.7 µM
GI50 (A498 renal): 0.217 µM
TGI (A498 renal): 0.685 µM
GI50 (A549 NSCLC): 0.666 µM
TGI (A549 NSCLC): > 100 µM
GI50 (ACHN renal): 0.811 µM
TGI (ACHN renal): > 100 µM
GI50 (BT-549 breast): 0.322 µM
TGI (BT-549 breast): 1.32 µM
GI50 (CAKI-1 renal): 0.425 µM
TGI (CAKI-1 renal): > 100 µM
GI50 (CCRF-CEM leukemia): 0.334 µM
TGI (CCRF-CEM leukemia): > 100 µM
GI50 (COLO 205 colon): 0.273 µM
TGI (COLO 205 colon): 0.751 µM
GI50 (DU-145 prostate): 0.478 µM
TGI (DU-145 prostate): > 100 µM
GI50 (EKVX NSCLC): 0.704 µM
TGI (EKVX NSCLC): > 100 µM
GI50 (HCC-2998 colon): 0.795 µM
TGI (HCC-2998 colon): > 100 µM
GI50 (HCT-116 colon): 0.394 µM
TGI (HCT-116 colon): > 40.3 µM
GI50 (HCT-15 colon): 0.404 µM
TGI (HCT-15 colon): > 100 µM
GI50 (HL-60(TB) leukemia): 0.281 µM
TGI (HL-60(TB) leukemia): 9.06 µM
GI50 (HOP-62 NSCLC): 0.433 µM
TGI (HOP-62 NSCLC): > 100 µM
GI50 (HOP-92 NSCLC): 0.283 µM
TGI (HOP-92 NSCLC): 4.66 µM
GI50 (HS 578T breast): 0.305 µM
TGI (HS 578T breast): > 100 µM
GI50 (HT29 colon): 0.322 µM
TGI (HT29 colon): 1.28 µM
GI50 (IGROV1 ovarian): 0.648 µM
TGI (IGROV1 ovarian): > 100 µM
GI50 (K-562 leukemia): 0.35 µM
TGI (K-562 leukemia): > 100 µM
GI50 (KM12 colon): 0.457 µM
TGI (KM12 colon): > 100 µM
GI50 (LOX IMVI melanoma): 0.564 µM
TGI (LOX IMVI melanoma): > 100 µM
GI50 (M14 melanoma): 0.322 µM
TGI (M14 melanoma): 34.2 µM
GI50 (MCF7 breast): 0.381 µM
TGI (MCF7 breast): > 100 µM
GI50 (MDA-MB-231 breast): 0.868 µM
TGI (MDA-MB-231 breast): > 100 µM
GI50 (MDA-MB-435): 0.205 µM
TGI (MDA-MB-435): 0.522 µM
GI50 (MOLT-4 leukemia): 0.589 µM
TGI (MOLT-4 leukemia): > 100 µM
GI50 (NCI-H226 lung): 0.438 µM
TGI (NCI-H226 lung): > 72 µM
GI50 (NCI-H23 lung): 0.57 µM
TGI (NCI-H23 lung): > 100 µM
GI50 (NCI-H460 lung): 0.357 µM
TGI (NCI-H460 lung): > 100 µM
GI50 (NCI-H522 lung): 0.235 µM
TGI (NCI-H522 lung): 0.76 µM
GI50 (NCI/ADR-RES ovarian): 0.395 µM
TGI (NCI/ADR-RES ovarian): > 100 µM
GI50 (OVCAR-4 ovarian): > 100 µM
TGI (OVCAR-4 ovarian): > 100 µM
GI50 (OVCAR-5 ovarian): 0.917 µM
TGI (OVCAR-5 ovarian): > 100 µM
GI50 (OVCAR-8 ovarian): 0.428 µM
TGI (OVCAR-8 ovarian): 6.61 µM
GI50 (PC-3 prostate): 0.449 µM
TGI (PC-3 prostate): > 100 µM
GI50 (RPMI-8226 leukemia): 0.423 µM
TGI (RPMI-8226 leukemia): > 100 µM
GI50 (RXF 393 renal): 0.282 µM
TGI (RXF 393 renal): > 100 µM
GI50 (SF-268 CNS): 2.51 µM
TGI (SF-268 CNS): > 100 µM
GI50 (SF-295 CNS): 0.317 µM
TGI (SF-295 CNS): > 83.8 µM
GI50 (SF-539 CNS): 0.269 µM
TGI (SF-539 CNS): 0.857 µM
GI50 (SK-MEL-2 melanoma): 0.504 µM
TGI (SK-MEL-2 melanoma): > 100 µM
GI50 (SK-MEL-28 melanoma): > 100 µM
TGI (SK-MEL-28 melanoma): > 100 µM
GI50 (SK-MEL-5 melanoma): 0.462 µM
TGI (SK-MEL-5 melanoma): 3.01 µM
GI50 (SK-OV-3 ovarian): 0.453 µM
TGI (SK-OV-3 ovarian): > 100 µM
GI50 (SN12C renal): 0.594 µM
TGI (SN12C renal): > 100 µM
GI50 (SNB-19 CNS): 0.464 µM
TGI (SNB-19 CNS): > 100 µM
GI50 (SNB-75 CNS): 0.321 µM
TGI (SNB-75 CNS): > 100 µM
GI50 (SR leukemia): 0.308 µM
TGI (SR leukemia): > 100 µM
GI50 (SW-620 colon): 0.38 µM
TGI (SW-620 colon): > 100 µM
GI50 (TK-10 renal): > 100 µM
TGI (TK-10 renal): > 100 µM
GI50 (U251 CNS): 0.365 µM
TGI (U251 CNS): > 100 µM
GI50 (UACC-257 melanoma): 2.32 µM
TGI (UACC-257 melanoma): > 100 µM
GI50 (UACC-62 melanoma): 0.39 µM
TGI (UACC-62 melanoma): > 100 µM
GI50 (UO-31 renal): 0.686 µM
TGI (UO-31 renal): > 100 µM

Fc1cccc(Cl)c1/C=N/Nc1nc(N/N=C/c2c(F)cccc2Cl)nc(N2CCCCC2)n1
GI50 (786-0 renal): 3.44 µM
TGI (786-0 renal): 14.7 µM
GI50 (A498 renal): 2.4 µM
TGI (A498 renal): 13.2 µM
GI50 (A549 NSCLC): 3.04 µM
TGI (A549 NSCLC): > 100 µM
GI50 (ACHN renal): 3.04 µM
TGI (ACHN renal): 12.8 µM
GI50 (BT-549 breast): 4.45 µM
TGI (BT-549 breast): 20.9 µM
GI50 (CAKI-1 renal): 3.01 µM
TGI (CAKI-1 renal): 15.5 µM
GI50 (DU-145 prostate): 11.7 µM
TGI (DU-145 prostate): > 100 µM
GI50 (EKVX NSCLC): 1.54 µM
TGI (EKVX NSCLC): > 100 µM
GI50 (HCC-2998 colon): 3.68 µM
TGI (HCC-2998 colon): > 100 µM
GI50 (HCT-116 colon): 2.83 µM
TGI (HCT-116 colon): 11.9 µM
GI50 (HCT-15 colon): 2.82 µM
TGI (HCT-15 colon): > 100 µM
GI50 (HL-60(TB) leukemia): 2 µM
TGI (HL-60(TB) leukemia): > 100 µM
GI50 (HOP-62 NSCLC): 2.85 µM
TGI (HOP-62 NSCLC): 12 µM
GI50 (HOP-92 NSCLC): 1.47 µM
TGI (HOP-92 NSCLC): 5.36 µM
GI50 (HS 578T breast): 2.44 µM
TGI (HS 578T breast): 15.4 µM
GI50 (HT29 colon): 2.9 µM
TGI (HT29 colon): > 100 µM
GI50 (IGROV1 ovarian): 3.16 µM
TGI (IGROV1 ovarian): > 100 µM
GI50 (K-562 leukemia): 3.08 µM
TGI (K-562 leukemia): > 100 µM
GI50 (KM12 colon): 2.93 µM
TGI (KM12 colon): > 100 µM
GI50 (LOX IMVI melanoma): 3.77 µM
TGI (LOX IMVI melanoma): > 100 µM
GI50 (M14 melanoma): 2.4 µM
TGI (M14 melanoma): 9 µM
GI50 (MALME-3M melanoma): 2.21 µM
TGI (MALME-3M melanoma): 6.26 µM
GI50 (MDA-MB-231 breast): 7.65 µM
TGI (MDA-MB-231 breast): 24.4 µM
GI50 (MDA-MB-435): 2.86 µM
TGI (MDA-MB-435): > 100 µM
GI50 (NCI-H226 lung): 6.48 µM
TGI (NCI-H226 lung): > 100 µM
GI50 (NCI-H23 lung): 3.42 µM
TGI (NCI-H23 lung): 16.8 µM
GI50 (NCI-H460 lung): 3.14 µM
TGI (NCI-H460 lung): > 100 µM
GI50 (NCI-H522 lung): 2.57 µM
TGI (NCI-H522 lung): 9.68 µM
GI50 (NCI/ADR-RES ovarian): 2.76 µM
TGI (NCI/ADR-RES ovarian): > 100 µM
GI50 (OVCAR-4 ovarian): 2.58 µM
TGI (OVCAR-4 ovarian): > 100 µM
GI50 (OVCAR-5 ovarian): 3.8 µM
TGI (OVCAR-5 ovarian): > 100 µM
GI50 (OVCAR-8 ovarian): 3.89 µM
TGI (OVCAR-8 ovarian): > 100 µM
GI50 (PC-3 prostate): 2.06 µM
TGI (PC-3 prostate): > 100 µM
GI50 (RPMI-8226 leukemia): 2.26 µM
TGI (RPMI-8226 leukemia): > 100 µM
GI50 (RXF 393 renal): 2.65 µM
TGI (RXF 393 renal): 11.5 µM
GI50 (SF-268 CNS): 4.22 µM
TGI (SF-268 CNS): 52.9 µM
GI50 (SF-295 CNS): 1.01 µM
TGI (SF-295 CNS): 10.7 µM
GI50 (SF-539 CNS): 7.65 µM
TGI (SF-539 CNS): 24.3 µM
GI50 (SK-MEL-2 melanoma): 1.69 µM
TGI (SK-MEL-2 melanoma): 3.91 µM
GI50 (SK-MEL-28 melanoma): 3.41 µM
TGI (SK-MEL-28 melanoma): > 100 µM
GI50 (SK-OV-3 ovarian): 3.65 µM
TGI (SK-OV-3 ovarian): 15.4 µM
GI50 (SN12C renal): 2.85 µM
TGI (SN12C renal): > 100 µM
GI50 (SNB-19 CNS): 3.25 µM
TGI (SNB-19 CNS): 18 µM
GI50 (SNB-75 CNS): 2.36 µM
TGI (SNB-75 CNS): 10.5 µM
GI50 (SW-620 colon): 3.51 µM
TGI (SW-620 colon): > 100 µM
GI50 (TK-10 renal): 3.73 µM
TGI (TK-10 renal): 9.11 µM
GI50 (U251 CNS): 3.56 µM
TGI (U251 CNS): 22.5 µM
GI50 (UACC-62 melanoma): 2.35 µM
TGI (UACC-62 melanoma): 9.5 µM
GI50 (UO-31 renal): 2.01 µM
TGI (UO-31 renal): > 100 µM
